# Experimental data: the supplement of paper PMC10307832
# Tests used:
# Assay in all cases: relative viability (nuclei count vs DMSO), 5 days (fraction); higher = more cells survive
# [1] = compound: CCC1=CN=CN=C1N2CCN(CC2)CC3=NC4=C(N3)C=C(C=C4)C(F)(F)F + Nc1ncn([C@H]2C[C@H](O)[C@@H](CO)O2)c(=O)n1 [Decitabine] (partner 2 µM)
# Summary of the method: (§1)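 The day after seeding in 1536-well plates, lung cancer cell lines were treated by pin tool with a single drug, or with a fixed anchor-drug dose together with five library-drug doses (not always all listed) in √10 steps. After 5 days, a combined fix-and-stain solution (final 0.05% Triton X-100, 1% formaldehyde, 1 ug/ml Hoechst) was added. Nuclei counted on 4× images gave relative viability as treated counts over vehicle counts, reported as the median of duplicate plates.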
# [2] = compound: CCC1=CN=CN=C1N2CCN(CC2)CC3=NC4=C(N3)C=C(C=C4)C(F)(F)F + Nc1nc2[nH]cc(CCc3ccc(C(=O)N[C@@H](CCC(=O)O)C(=O)O)cc3)c2c(=O)[nH]1 [Pemetrexed] (partner 0.2 µM)
# Summary of the method: as §1
# [3] = compound: CCC1=CN=CN=C1N2CCN(CC2)CC3=NC4=C(N3)C=C(C=C4)C(F)(F)F + NC(=O)Nc1cc(-c2cccc(F)c2)sc1C(=O)N[C@H]1CCCNC1 [AZD7762] (partner 0.2 µM)
# Summary of the method: as §1
# Mirin + Trametinib = compound: N=C1NC(=O)/C(=C/c2ccc(O)cc2)S1 [Mirin] + CC(=O)Nc1cccc(-n2c(=O)n(C3CC3)c(=O)c3c(Nc4ccc(I)cc4F)n(C)c(=O)c(C)c32)c1 [Trametinib] (partner 0.02 µM)
# Summary of the method: as §1
Cell Line,relative viability ([1]; first compound 0.04 µM),relative viability ([1]; first compound 0.1265 µM),relative viability ([1]; first compound 0.4 µM),relative viability ([1]; first compound 1.265 µM),relative viability ([1]; first compound 4 µM),relative viability ([2]; first compound 0.04 µM),relative viability ([2]; first compound 0.1265 µM),relative viability ([2]; first compound 0.4 µM),relative viability ([2]; first compound 1.265 µM),relative viability ([2]; first compound 4 µM),relative viability ([3]; first compound 0.04 µM),relative viability ([3]; first compound 0.1265 µM),relative viability ([3]; first compound 0.4 µM),relative viability ([3]; first compound 1.265 µM),relative viability ([3]; first compound 4 µM),relative viability (Mirin + Trametinib; first compound 0.25 µM),relative viability (Mirin + Trametinib; first compound 0.7906 µM),relative viability (Mirin + Trametinib; first compound 2.5 µM),relative viability (Mirin + Trametinib; first compound 7.906 µM),relative viability (Mirin + Trametinib; first compound 25 µM)
EKVX,0.264,0.289,0.328,0.344,0.335,0.425,0.395,0.399,0.404,0.384,0.724,0.712,0.756,0.646,0.777,0.373,0.246,0.382,0.35,0.376
EMC-BAC-2,–,0.945,0.998,0.924,1.05,0.436,0.43,0.455,0.418,0.469,1.1,1.05,1.12,1.05,1.21,0.934,0.889,0.875,0.761,0.957
EPLC-272H,0.347,0.319,0.388,0.288,0.406,0.308,0.33,0.276,0.318,0.281,0.172,0.209,0.207,0.245,0.262,0.308,–,0.281,0.3,0.317
H3255,0.578,0.555,0.594,0.52,0.55,0.59,0.552,0.59,0.568,0.575,0.86,0.852,0.824,0.931,0.874,0.604,0.752,0.557,0.412,0.566
HARA,0.424,0.505,0.533,0.508,0.512,0.276,0.242,0.227,0.226,0.222,0.484,0.263,0.339,0.292,0.436,0.886,–,0.795,0.674,0.523
HCC-15,0.537,0.558,0.633,0.608,0.575,0.217,0.204,0.224,0.236,0.218,1.3,1.11,1.1,1.32,1.32,0.341,0.368,0.363,0.368,0.365
HCC-44,0.964,0.939,0.944,0.949,0.937,0.635,0.63,0.684,0.685,0.644,1.04,0.946,0.977,1.13,0.986,0.981,1.36,1.08,1.06,1.09
HCC-78,0.667,0.501,0.643,0.6,0.674,0.913,0.829,0.905,0.898,0.952,0.564,0.559,0.668,0.525,0.631,0.647,0.715,0.885,0.709,0.72
HCC-366,0.356,0.288,0.317,0.307,0.353,0.174,0.22,0.156,0.137,0.15,0.33,0.256,0.219,0.226,0.302,0.382,0.348,0.33,0.337,0.28
HCC-827,0.504,0.286,0.34,0.307,0.357,0.268,0.221,0.276,0.242,0.278,0.186,0.233,0.208,0.196,0.174,0.529,0.471,0.584,0.607,0.547
HOP-62,0.185,0.199,0.214,0.249,0.193,0.283,0.293,0.326,0.275,0.283,0.491,0.439,0.602,0.558,0.746,0.369,0.447,0.355,0.491,0.398
LC-2-ad,0.929,0.816,0.792,0.774,0.768,0.272,0.266,0.283,0.289,0.292,0.87,0.807,0.823,0.81,0.804,0.964,1.06,0.979,0.906,0.945
LCLC-97TM1,0.24,0.205,0.225,0.227,0.215,0.161,0.152,0.153,0.194,0.173,0.263,0.206,0.22,0.309,0.274,0.172,0.179,0.235,0.176,0.165
LCLC-103H,0.708,0.698,0.712,0.748,0.728,0.399,0.449,0.462,0.446,0.467,0.776,0.774,0.794,0.684,0.865,0.744,0.799,0.735,0.735,0.833
LK-2,0.254,0.266,0.346,0.256,0.231,0.281,0.259,0.253,0.199,0.302,0.414,0.476,0.353,0.209,0.466,0.653,0.577,0.609,0.421,0.42
LOU-NH91,0.797,0.79,0.806,0.841,0.816,0.377,0.318,0.378,0.348,0.379,0.758,0.743,0.72,0.634,0.831,0.789,0.809,0.795,0.823,1.01
LU99A,0.906,0.877,0.785,0.837,0.843,0.187,0.169,0.178,0.177,0.248,0.41,0.301,0.34,0.359,0.403,0.515,0.496,0.56,0.395,0.55

Cell Line,relative viability ([1]; first compound 0.04 µM),relative viability ([1]; first compound 0.1265 µM),relative viability ([1]; first compound 0.4 µM),relative viability ([1]; first compound 1.265 µM),relative viability ([1]; first compound 4 µM),relative viability ([2]; first compound 0.04 µM),relative viability ([2]; first compound 0.1265 µM),relative viability ([2]; first compound 0.4 µM),relative viability ([2]; first compound 1.265 µM),relative viability ([2]; first compound 4 µM),relative viability ([3]; first compound 0.04 µM),relative viability ([3]; first compound 0.1265 µM),relative viability ([3]; first compound 0.4 µM),relative viability ([3]; first compound 1.265 µM),relative viability ([3]; first compound 4 µM),relative viability (Mirin + Trametinib; first compound 0.25 µM),relative viability (Mirin + Trametinib; first compound 0.7906 µM),relative viability (Mirin + Trametinib; first compound 2.5 µM),relative viability (Mirin + Trametinib; first compound 7.906 µM),relative viability (Mirin + Trametinib; first compound 25 µM)
LXF-289,0.348,0.325,0.426,0.343,0.419,0.938,0.777,0.915,0.977,0.788,1.3,1.01,1.1,1.29,1.05,0.694,0.726,0.635,0.665,0.828
NCI-H23,0.288,0.31,0.282,0.252,0.358,0.579,0.755,0.615,0.646,0.558,0.25,0.202,0.162,0.229,0.325,0.358,–,0.384,0.279,0.298
NCI-H322M,0.687,0.658,0.632,0.654,0.699,0.62,0.606,0.603,0.539,0.629,0.538,0.591,0.572,0.511,0.653,0.497,0.506,0.555,0.564,0.571
NCI-H358,0.206,0.204,0.158,0.174,0.217,0.159,0.193,0.176,0.151,0.167,0.614,0.436,0.453,0.51,0.485,0.123,0.146,0.163,0.11,0.13
NCI-H441,0.239,0.212,0.21,0.264,0.315,0.231,0.274,0.274,0.204,0.265,1.29,1.15,1.03,1.15,1.21,0.528,0.404,0.428,0.557,0.508
NCI-H460,0.535,0.424,0.496,0.435,0.452,0.0519,0.0632,0.0612,0.0661,0.0611,0.622,0.528,0.619,0.578,0.6,0.142,0.172,0.206,0.102,0.171
NCI-H522,0.666,0.63,0.821,0.621,0.797,0.855,1.2,0.892,0.876,0.958,0.87,0.869,0.707,0.748,0.901,0.682,0.741,0.872,0.768,0.519
NCI-H596,1,1.01,0.958,0.853,1.06,0.52,0.506,0.483,0.438,0.444,1.21,1.07,1.07,0.992,1.08,0.872,0.77,0.763,0.873,0.835
NCI-H647,0.449,0.273,0.356,0.325,0.301,0.165,0.173,0.166,0.159,0.135,0.438,0.476,0.457,0.471,0.554,0.475,0.605,0.548,0.524,0.474
NCI-H650,0.313,0.306,0.328,0.271,0.287,0.806,0.866,0.99,0.837,0.973,0.844,0.909,1.01,1.29,0.946,1.08,0.93,0.938,0.968,0.88
NCI-H838,0.418,0.408,0.475,0.433,0.444,0.248,0.239,0.247,0.244,0.225,1.04,0.877,0.904,0.829,0.948,0.548,0.577,0.52,0.528,0.513
NCI-H1355,0.326,0.388,0.344,0.339,0.359,1.07,0.928,0.996,0.996,1.08,0.744,0.722,0.638,0.627,0.637,0.457,0.482,0.48,0.374,0.399
NCI-H1395,0.705,0.676,0.692,–,0.743,0.862,0.754,0.896,–,0.845,0.398,0.349,0.37,–,0.474,0.996,–,1.03,1.01,1
NCI-H1437,0.537,0.529,0.531,0.589,0.487,0.296,0.295,0.306,0.35,0.224,1.13,1.15,0.996,1.03,0.706,0.597,0.46,0.555,0.519,0.399
NCI-H1648,0.502,–,–,0.511,0.502,0.614,–,–,0.769,0.683,0.666,–,–,0.655,0.683,0.448,–,0.41,0.457,0.389
NCI-H1651,0.623,0.413,0.667,0.602,0.581,0.616,0.627,0.684,0.59,0.728,0.452,0.433,0.436,0.484,0.524,0.809,0.875,0.886,0.767,0.855
